Laboratory results from patent US3968214A, “5-Methylthio-pyrimidine vasodilators” (Produits Chimiques Ugine Kuhlmann, priority 1973, dated 1976).

What was measured:
[1] = test system: isolated duodenum of rabbit, contractions caused by acetylcholine; assay: Spasmolytic activity, neurotrope versus acetylcholine, isolated duodenum (Magnus)
Excerpt: (§1) The spasmolytic activities are known by means of the technique of R. Magnus (Arch. Ges. Physiol., 1904, 102, 123) on the isolated duodenum of rabbits. The spasmolytic neurotropes inhibit the contractions of the organ caused by acetylcholine, while the musculotropes prevent the spasms induced by barium chloride. The EC 50 expressed in mg/litre are collected in the following Table where EC denotes "Effective concentration".

glycemia = assay: Hypoglycemiant activity, variation of glycemia after 4 days of daily oral treatment; assay type: in vivo, male CD rats (Charles RIVER); settings: rat
Description: The hypoglycemiant properties have been studied on the male CD rats (Charles RIVER) weighing 200 to 250 g, in which the glycemia is controlled before treatment and then after 4 days of daily oral treatment. The seric glucose is determined by the method of W. S. Hoffmann (J. Biol. Chem., 1937, 120, 51). Groups of 10 rats are used and the hypoglycemiant activity is expressed by the percentage variation of the average glycemia of the treated animals with respect to that of the controls. If it is necessary, the statistical significance of the difference is determined by the test of the coefficient "t" of Student.

[2] = Acute toxicity in mice, intravenous and oral (LD50); assay type: in vivo; settings: mouse, in vivo, oral, read-out: Acute toxicity to mice LD 50, orally
Excerpt: (§2) The acute toxicities of the compounds according to the invention have been determined CD 1 mice (Charles RIVER) by intravenous and oral methods. The LD50 calculated by the quantal cumulative method of J. J. Reed and H. Muench (Amer. J. Hyg. 1938, 27, 493) are collected in the following Table: […]

[3] = test system: isolated duodenum of rabbit, spasms induced by barium chloride; assay: Spasmolytic activity, musculotrope versus BaCl2, isolated duodenum (Magnus)
Excerpt: as §1

[4] = test system: serotonin (shaking of the head induced by 5-hydroxy-tryptophan); assay: Central antiserotonin activity: Head-twitch induced by 5-hydroxy-tryptophan; assay type: in vivo, mice; settings: Mus musculus; mice, oral; read-out: Antiserotonin activity Head-twitch AD 50
Excerpt: The analgesic activities have been investigated with respect to abdominal spasms caused in mice by the intraperitoneal injection of 2-phenyl-1,4-benzoquinone according to E. Siegmund, E. Cadmus and G. Lu, Proc. Soc. exp. […] The central antiserotonin properties have been determined by the "Head-twitch" technique in mice according to S. J. Corne, R. W. Pickering and B. T. Warner, Brit. […] In this test, the antiserotonin products inhibit the sudden shaking of the head induced in mice by 5-hydroxy-tryptophan, the biological precursor of serotonin.

[5] = test system: abdominal spasms caused in mice by 2-phenyl-1,4-benzoquinone; assay: Analgesic activity: abdominal spasms caused by intraperitoneal 2-phenyl-1,4-benzoquinone (P.B.Q.); assay type: in vivo; settings: Mus musculus; mice, oral; read-out: Analgesic activity P.B.Q. AD 50
Excerpt: The analgesic activities have been investigated with respect to abdominal spasms caused in mice by the intraperitoneal injection of 2-phenyl-1,4-benzoquinone according to E. Siegmund, E. Cadmus and G. Lu, Proc. Soc. exp. Biol. Med., 1957, 95, 729-731. The central antiserotonin properties have been determined by the "Head-twitch" technique in mice according to S. J. Corne, R. W. Pickering and B. T. Warner, Brit. J. Pharmacol., 1963, 20, 106-120. In this test, the antiserotonin products inhibit the sudden shaking of the head induced in mice by 5-hydroxy-tryptophan, the biological precursor of serotonin.

mice = assay: Acute toxicity in mice, intravenous and oral (LD50); assay type: in vivo
Excerpt: as §2

## CCCN(CCC)c1nc(Cl)c(SC)c(NCCN(CC)CC)n1 [Example 5, 2-dipropylamino-4-(2'-diethylamino)-ethylamino-5-methylthio-6-chloro-pyrimidine]
[1]
  Spasmolytic activity EC 50, neurotrope versus acetylcholine: 1.00 µg/mL
glycemia
  hypoglycemiant properties (in words): strong hypoglycemiant properties
[2]
  LD50: 800 mg/kg
[3]
  Spasmolytic activity EC 50, musculotrope versus BaCl2: 0.90 µg/mL
[4]
  ED50: 100 mg/kg
[5]
  ED50: > 300 mg/kg

## CSc1c(Cl)nc(N(C)c2ccc(Cl)cc2)nc1NCCN(C(C)C)C(C)C [Example 18, 2-N-methyl-N(4-chloro-phenyl)amino-4-(2'-diisopropyl-amino)-ethylamino-5-methylthio-6-chloro-pyrimidine]
glycemia
  hypoglycemiant properties (in words): strong hypoglycemiant properties
[2]
  LD50: > 900 mg/kg
[4]
  ED50: 205 mg/kg
[5]
  ED50: > 300 mg/kg

## CSc1c(NCCN(C(C)C)C(C)C)nc(N(C)c2ccccc2)nc1OCCCN(C)C [Example 30, 2-N-methyl-N-phenyl-amino-4-(2'-di-isopropyl-amino)-ethylamino-5-methyl-thio-6-(dimethylaminoethyl)-methoxy-pyrimidine]
glycemia
  hypoglycemiant properties (in words): strong hypoglycemiant properties
mice; intravenous
  Acute toxicity to mice LD 50, intravenous: 9.5 mg/kg
mice; oral
  Acute toxicity to mice LD 50, orally: 200 mg/kg
[3]
  Spasmolytic activity EC 50, musculotrope versus BaCl2: 1.00 µg/mL
